{"source": "patent EP0395312B1", "about": "“Piperazine derivatives” (JOHN WYETH & BROTHER LIMITED, priority 1989, dated 1990)", "key": {"5-HT1A receptor [1]": {"target": "T1, 5-HT1A receptor (Cavia porcellus, UniProt A0A286Y074)", "T1 construct": "in the guine-pig ileum in in vitro; from tissue; host or cells: guinea-pig isolated ileum", "T1 sequence (A0A286Y074 1-421)": "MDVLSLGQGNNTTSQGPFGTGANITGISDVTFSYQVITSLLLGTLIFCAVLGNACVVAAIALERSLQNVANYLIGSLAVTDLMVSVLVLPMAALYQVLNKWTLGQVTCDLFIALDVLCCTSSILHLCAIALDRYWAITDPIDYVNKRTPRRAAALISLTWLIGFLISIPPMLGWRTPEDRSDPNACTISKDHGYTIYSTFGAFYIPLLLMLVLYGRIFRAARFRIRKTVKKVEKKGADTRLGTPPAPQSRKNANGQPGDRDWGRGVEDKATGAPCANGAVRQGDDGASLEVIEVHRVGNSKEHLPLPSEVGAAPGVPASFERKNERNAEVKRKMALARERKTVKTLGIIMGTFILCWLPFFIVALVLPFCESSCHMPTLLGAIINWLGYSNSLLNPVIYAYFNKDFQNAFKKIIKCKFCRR", "assay": "5-HT1A receptor antagonism: antagonism of 5-carboxamidotryptamine in isolated ileum in vitro", "parameters": "species or system guine-pig", "details": "guinea-pig ileum in vitro, read-out: pA2 (converted)", "quoted_text": "The compounds are tested for 5-HT1A receptor antagonism activity in a test involving the antagonism of 5-carboxamidotryptamine in the guine-pig ileum in in vitro (based upon the procedure of Fozard et al, Br J Pharmac 1985, 86, 601P)."}, "α1 sites": {"tested_on": "α1 sites", "assay": "Affinity for α1 sites (procedure of Morrow et al)", "type": "binding", "details": "read-out: Affinity for α1 site IC50"}, "5-HT1A receptor [2]": {"target": "T2, 5-HT1A receptor (Rattus norvegicus, UniProt P19327)", "T2 construct": "rat hippocampal membrane homogenate; from tissue; host or cells: rat hippocampus membrane homogenate", "T2 sequence (P19327 1-422)": "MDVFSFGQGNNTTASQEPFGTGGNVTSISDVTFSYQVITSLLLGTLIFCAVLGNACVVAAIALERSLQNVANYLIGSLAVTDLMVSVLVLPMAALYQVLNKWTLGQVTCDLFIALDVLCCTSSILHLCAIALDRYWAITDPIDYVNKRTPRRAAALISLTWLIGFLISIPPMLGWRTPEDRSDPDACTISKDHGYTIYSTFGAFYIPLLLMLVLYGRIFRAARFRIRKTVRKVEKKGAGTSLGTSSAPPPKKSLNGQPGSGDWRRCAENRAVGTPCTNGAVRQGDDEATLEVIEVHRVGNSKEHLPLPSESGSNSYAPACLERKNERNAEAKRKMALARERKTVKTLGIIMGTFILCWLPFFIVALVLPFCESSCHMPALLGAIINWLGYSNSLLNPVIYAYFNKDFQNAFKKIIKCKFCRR", "assay": "5-HT1A receptor binding activity in rat hippocampal membrane homogenate", "experimental": "The compounds of the invention were tested for 5-HT1A receptor binding activity in rat hippocampal membrane homogenate by the method of B S Alexander and M D Wood, J Pharm Pharmarol, 1988, 40, 888-891."}, "D2 receptor sites": {"target": "D2 receptor sites (Homo sapiens, UniProt P14416)", "sequence (P14416 whole entry)": "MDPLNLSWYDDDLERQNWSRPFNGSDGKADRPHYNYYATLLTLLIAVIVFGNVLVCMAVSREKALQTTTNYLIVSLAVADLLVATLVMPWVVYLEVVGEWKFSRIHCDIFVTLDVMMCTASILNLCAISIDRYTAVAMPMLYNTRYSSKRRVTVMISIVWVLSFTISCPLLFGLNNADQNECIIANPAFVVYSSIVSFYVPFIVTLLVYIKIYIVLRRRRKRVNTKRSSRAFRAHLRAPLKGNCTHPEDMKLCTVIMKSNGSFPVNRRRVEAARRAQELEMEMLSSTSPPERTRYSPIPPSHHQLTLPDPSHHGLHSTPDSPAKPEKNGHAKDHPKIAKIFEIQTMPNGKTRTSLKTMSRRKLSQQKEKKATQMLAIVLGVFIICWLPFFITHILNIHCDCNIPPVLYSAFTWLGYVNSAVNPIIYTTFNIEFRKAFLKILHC", "assay": "Affinity for D2 receptor sites (procedure of Hancock et al)", "type": "binding", "details": "read-out: Affinity for D2 site IC50"}, "[3]": {"details": "5-HT1A receptor binding, rat hippocampal membrane homogenate, read-out: IC50"}}, "note": "Where two headings read alike, the source gives them in different places.", "data": [{"smiles": "COc1ccccc1N1CCN(CC(C(=O)N2CCCC2)c2ccccc2)CC1", "note": "(stereo not shown) [Example 32, 1-{3-{1-[4-(2-methoxyphenyl)piperazinyl]}-2-phenylpropionyl}pyrrolidine]", "values": [{"measurement": "Kb", "setting": "5-HT1A receptor [1]", "result": 158, "unit": "nM"}, {"measurement": "IC50", "setting": "α1 sites", "result": 851, "unit": "nM"}, {"measurement": "IC50", "setting": "5-HT1A receptor [2]; [3]", "result": 21, "unit": "nM"}, {"measurement": "IC50", "setting": "D2 receptor sites", "result": "> 10000", "unit": "nM"}]}, {"smiles": "COC(=O)C(CN1CCN(c2ccccc2OC)CC1)c1ccccc1", "note": "(stereo not shown) [Example 42, Methyl 3-[1-[4-(2-methoxyphenyl)piperazinyl]]-2-phenylpropionate]", "values": [{"measurement": "Kb", "setting": "5-HT1A receptor [1]", "result": 126, "unit": "nM"}, {"measurement": "IC50", "setting": "α1 sites", "result": 988, "unit": "nM"}, {"measurement": "IC50", "setting": "5-HT1A receptor [2]; [3]", "result": 37, "unit": "nM"}]}, {"smiles": "COc1ccccc1N1CCN(CC(OC(=O)C2CCCCC2)c2ccccc2)CC1", "note": "(stereo not shown) [Example 40, 2-{1-[4-(2-Methoxyphenyl)piperazinyl]}-1-phenylethyl cyclohexanecarboxylate]", "values": [{"measurement": "IC50", "setting": "5-HT1A receptor [2]; [3]", "result": 78, "unit": "nM"}]}, {"smiles": "COc1ccccc1N1CCN(CC(C(=O)NC2CCCCCCC2)c2ccccc2)CC1", "note": "(stereo not shown) [Example 35]", "values": [{"measurement": "IC50", "setting": "5-HT1A receptor [2]; [3]", "result": 16.5, "unit": "nM"}]}, {"smiles": "COc1ccccc1N1CCN(CC(C(=O)OCC(C)C)c2ccccc2)CC1", "note": "(stereo not shown) [Example 26, 2-Methylpropyl 3-{1-[4-(2-methoxyphenyl)piperazinyl]}-2-phenylpropanoate]", "values": [{"measurement": "Kb", "setting": "5-HT1A receptor [1]", "result": 158, "unit": "nM"}, {"measurement": "IC50", "setting": "α1 sites", "result": 1090, "unit": "nM"}, {"measurement": "IC50", "setting": "5-HT1A receptor [2]; [3]", "result": 46, "unit": "nM"}]}, {"smiles": "CCOC(=O)N[C@H](CN1CCN(c2ccccc2OC)CC1)c1ccccc1", "note": "[Example 41, Ethyl(S)-N-[2-[1-[4-(2-methoxyphenyl)piperazinyl]]-1-phenylethyl]carbamate]", "values": [{"measurement": "IC50", "setting": "α1 sites", "result": 2850, "unit": "nM"}, {"measurement": "IC50", "setting": "5-HT1A receptor [2]; [3]", "result": 88, "unit": "nM"}]}, {"smiles": "COc1ccccc1N1CCN(CC(OC(=O)Nc2ccccc2)c2ccccc2)CC1", "note": "(stereo not shown) [Example 39, O-[2-[1-[4-(2-Methoxyphenyl)piperazinyl]]-1-phenylethyl]-N-phenylcarbamate]", "values": [{"measurement": "IC50", "setting": "5-HT1A receptor [2]; [3]", "result": 22, "unit": "nM"}]}, {"smiles": "COc1ccccc1N1CCN(CC(C(=O)N2CCCCCC2)c2ccccc2)CC1", "note": "(stereo not shown) [Example 34, 2,3,4,5,6,7-hexahydro-1-{3-{1-[4-(2-methoxyphenyl)piperazinyl]}-2-phenylpropionyl}-1H-azepine]", "values": [{"measurement": "IC50", "setting": "5-HT1A receptor [2]", "result": 9, "unit": "nM"}]}, {"smiles": "CCOC(=O)C(Cc1ccccc1)CN1CCN(c2ccccc2OC)CC1", "note": "(stereo not shown) [Example 29, Ethyl 2-{1-[4-(2-methoxyphenyl)piperazinyl]methyl}-3-phenylpropanoate]", "values": [{"measurement": "IC50", "setting": "5-HT1A receptor [2]; [3]", "result": 25, "unit": "nM"}]}, {"smiles": "COc1ccccc1N1CCN(C[C@@H](NC(=O)C2CCCCC2)c2ccccc2)CC1", "note": "[Example 37, (S)-N-[2-[1-[4-(2-Methoxyphenyl)piperazinyl]]-1-phenylethyl]cyclohexanecarboxylic acid amide]", "values": [{"measurement": "Kb", "setting": "5-HT1A receptor [1]", "result": 25.1, "unit": "nM"}, {"measurement": "IC50", "setting": "α1 sites", "result": 7310, "unit": "nM"}, {"measurement": "IC50", "setting": "5-HT1A receptor [2]; [3]", "result": 45, "unit": "nM"}]}, {"smiles": "COc1ccccc1N1CCN(CC(C(=O)NCCN2C(=O)CC3(CCCC3)CC2=O)c2ccccc2)CC1", "note": "(stereo not drawn) [Example 21, 8-{α-{1-[4-(2-methoxyphenyl)piperazinyl]methyl}phenylacetamidoethyl}-8-azaspiro[4.5]deca-7,9-dione]", "values": [{"measurement": "Kb", "setting": "5-HT1A receptor [1]", "result": 126, "unit": "nM"}, {"measurement": "IC50", "setting": "α1 sites", "result": 1200, "unit": "nM"}, {"measurement": "IC50", "setting": "5-HT1A receptor [2]; [3]", "result": 49, "unit": "nM"}]}, {"smiles": "COc1ccccc1N1CCN(CC(C(=O)NC2CC2)c2ccccc2)CC1", "note": "(stereo not shown) [Example 31, cyclopropyl-amide]", "values": [{"measurement": "Kb", "setting": "5-HT1A receptor [1]", "result": 39.8, "unit": "nM"}, {"measurement": "IC50", "setting": "5-HT1A receptor [2]; [3]", "result": 28, "unit": "nM"}]}, {"smiles": "O=C(NC1CCCCC1)C(CN1CCN(c2ncccn2)CC1)c1ccccc1", "note": "(stereo not shown) [Example 24, N-Cyclohexyl-2-phenyl-3-{1-[4-(2-pyrimidinyl)piperazinyl]}propanamide]", "values": [{"measurement": "IC50", "setting": "α1 sites", "result": "> 10000", "unit": "nM"}, {"measurement": "IC50", "setting": "5-HT1A receptor [2]; [3]", "result": 75, "unit": "nM"}]}, {"smiles": "CNC(=O)C(CN1CCN(c2ccccc2OC)CC1)c1ccccc1", "note": "(stereo not shown) [Example 8, methylamide]", "values": [{"measurement": "IC50", "setting": "5-HT1A receptor [2]; [3]", "result": 45, "unit": "nM"}]}, {"smiles": "COc1ccccc1N1CCN(CC(C(=O)NCc2ccccc2)c2ccccc2)CC1", "note": "(stereo not shown) [Example 23, 3-{1-[4-(2-Methoxyphenyl)piperazinyl]}-2-phenyl-N-(phenylmethyl)propanamide]", "values": [{"measurement": "Kb", "setting": "5-HT1A receptor [1]", "result": 100, "unit": "nM"}, {"measurement": "IC50", "setting": "5-HT1A receptor [2]; [3]", "result": 59, "unit": "nM"}]}, {"smiles": "COc1ccccc1N1CCN(CC(C(=O)N2CCCCC2)c2ccccc2)CC1", "note": "(stereo not shown) [Example 33, 1-{3-{1-[4-(2-methoxyphenyl)piperazinyl]}-2-phenylpropionyl}piperidine]", "values": [{"measurement": "IC50", "setting": "5-HT1A receptor [2]; [3]", "result": 8, "unit": "nM"}]}, {"smiles": "COc1ccccc1N1CCN(CC(C(=O)Nc2ccccc2)c2ccccc2)CC1", "note": "(stereo not shown) [Example 6, 3-{1-[4-(2-Methoxyphenyl)piperazinyl]}-2-phenyl-N-phenylpropanamide]", "values": [{"measurement": "IC50", "setting": "5-HT1A receptor [2]; [3]", "result": 127, "unit": "nM"}]}, {"smiles": "COc1ccccc1N1CCN(CC(C(=O)NC2CCCCC2)c2ccccc2)CC1", "note": "(stereo not shown) [Example 19]", "values": [{"measurement": "Kb", "setting": "5-HT1A receptor [1]", "result": 126, "unit": "nM"}, {"measurement": "IC50", "setting": "5-HT1A receptor [2]; [3]", "result": 24, "unit": "nM"}, {"measurement": "IC50", "setting": "D2 receptor sites", "result": 6290, "unit": "nM"}]}, {"smiles": "COc1ccccc1N1CCN(CC(C(=O)N(C)C)c2ccccc2)CC1", "note": "(stereo not shown) [Example 22, N,N-Dimethyl-3-{1-[4-(2-methoxyphenyl)piperazinyl]}-2-phenylpropanamide]", "values": [{"measurement": "IC50", "setting": "α1 sites", "result": 1230, "unit": "nM"}, {"measurement": "IC50", "setting": "5-HT1A receptor [2]; [3]", "result": 45, "unit": "nM"}]}]}
